Experimental data published in article PMC6804443 (Acta Pharmaceutica Sinica. B, 2019).
Entries after “also recorded” stand apart in the source; their conditions may differ.

Columns and labels:
OATP1B1 = OATP1B1 (Homo sapiens, UniProt Q9Y6L6); experiment: OATP1B1 inhibition by XueBiJing compounds, transfected HEK293 cells [E217βG]; format: in vitro ADME
CYP3A4 = conditions: higher concentrations; range over the named compounds and enzymes
[1] = XueBiJing compounds, cited from earlier work
OAT3 = target: T1, OAT3 (Homo sapiens, UniProt Q8TCC7); format: in vitro ADME
T1 sequence (Q8TCC7 1-542): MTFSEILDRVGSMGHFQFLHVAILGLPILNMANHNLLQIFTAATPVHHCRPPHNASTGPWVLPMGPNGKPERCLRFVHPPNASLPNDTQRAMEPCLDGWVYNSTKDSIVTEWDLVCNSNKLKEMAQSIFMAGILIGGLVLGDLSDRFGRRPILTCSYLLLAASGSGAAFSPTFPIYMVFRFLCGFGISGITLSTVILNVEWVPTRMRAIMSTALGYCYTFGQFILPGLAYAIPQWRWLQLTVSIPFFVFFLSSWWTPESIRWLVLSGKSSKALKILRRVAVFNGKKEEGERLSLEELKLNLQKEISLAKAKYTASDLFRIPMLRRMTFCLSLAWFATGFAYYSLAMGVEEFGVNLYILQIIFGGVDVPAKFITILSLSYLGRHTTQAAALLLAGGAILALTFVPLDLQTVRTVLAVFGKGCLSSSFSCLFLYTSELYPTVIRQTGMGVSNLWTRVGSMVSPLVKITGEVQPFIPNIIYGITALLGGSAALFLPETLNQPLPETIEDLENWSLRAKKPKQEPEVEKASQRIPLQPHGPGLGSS

OATP1B3 [2] = target: T2, OATP1B3 (Homo sapiens, UniProt Q9NPD5); experiment: in vitro; format: in vitro ADME
T2 sequence (Q9NPD5 1-702): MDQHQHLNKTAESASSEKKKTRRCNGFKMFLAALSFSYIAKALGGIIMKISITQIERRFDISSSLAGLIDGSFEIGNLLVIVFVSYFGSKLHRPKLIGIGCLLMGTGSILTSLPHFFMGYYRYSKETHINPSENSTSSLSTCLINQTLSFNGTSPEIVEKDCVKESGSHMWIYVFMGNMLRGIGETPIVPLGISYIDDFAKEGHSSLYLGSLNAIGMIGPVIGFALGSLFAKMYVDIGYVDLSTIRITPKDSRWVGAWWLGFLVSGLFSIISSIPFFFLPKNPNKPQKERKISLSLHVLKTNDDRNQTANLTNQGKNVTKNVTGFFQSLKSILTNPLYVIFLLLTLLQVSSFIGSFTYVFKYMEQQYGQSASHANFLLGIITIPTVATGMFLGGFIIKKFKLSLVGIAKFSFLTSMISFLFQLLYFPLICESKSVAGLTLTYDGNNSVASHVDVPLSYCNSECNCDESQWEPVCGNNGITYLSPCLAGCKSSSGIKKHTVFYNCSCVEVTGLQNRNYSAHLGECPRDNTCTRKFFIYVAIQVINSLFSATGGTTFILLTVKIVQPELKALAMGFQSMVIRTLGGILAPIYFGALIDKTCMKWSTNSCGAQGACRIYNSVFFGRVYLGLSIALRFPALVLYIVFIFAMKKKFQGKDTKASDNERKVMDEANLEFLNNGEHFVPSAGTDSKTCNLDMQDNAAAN

OATP1B3 [3] = target: T2, OATP1B3; experiment: in vitro
[4] = tested on: P450 enzymes, UGTs, SULTs, OATP1B1/1B3, OAT1/3, OCT2, MATE1/2-K, MDR1, BCRP; conditions: cited from earlier work
UGT1A9 = target: T3, UGT1A9 (Homo sapiens, UniProt O60656); experiment: UGT1A9 inhibition by XueBiJing compounds, cDNA-expressed enzyme [4-MU→4-MUG]; format: in vitro ADME
T3 sequence (O60656 26-530): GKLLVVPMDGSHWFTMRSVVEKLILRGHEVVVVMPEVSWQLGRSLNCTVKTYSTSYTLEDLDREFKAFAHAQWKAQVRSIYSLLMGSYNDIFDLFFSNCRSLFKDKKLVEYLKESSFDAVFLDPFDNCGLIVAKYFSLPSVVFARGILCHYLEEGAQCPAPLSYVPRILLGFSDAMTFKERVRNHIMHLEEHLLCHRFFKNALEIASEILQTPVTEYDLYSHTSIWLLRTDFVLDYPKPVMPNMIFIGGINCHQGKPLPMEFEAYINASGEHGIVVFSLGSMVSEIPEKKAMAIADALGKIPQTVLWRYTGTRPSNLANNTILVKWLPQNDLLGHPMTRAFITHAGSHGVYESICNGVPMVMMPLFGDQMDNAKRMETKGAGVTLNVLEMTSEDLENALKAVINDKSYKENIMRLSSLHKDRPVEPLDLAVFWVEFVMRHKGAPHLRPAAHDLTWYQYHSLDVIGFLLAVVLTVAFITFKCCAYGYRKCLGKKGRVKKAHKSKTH

OATP1B1, sequence (Q9Y6L6 whole entry): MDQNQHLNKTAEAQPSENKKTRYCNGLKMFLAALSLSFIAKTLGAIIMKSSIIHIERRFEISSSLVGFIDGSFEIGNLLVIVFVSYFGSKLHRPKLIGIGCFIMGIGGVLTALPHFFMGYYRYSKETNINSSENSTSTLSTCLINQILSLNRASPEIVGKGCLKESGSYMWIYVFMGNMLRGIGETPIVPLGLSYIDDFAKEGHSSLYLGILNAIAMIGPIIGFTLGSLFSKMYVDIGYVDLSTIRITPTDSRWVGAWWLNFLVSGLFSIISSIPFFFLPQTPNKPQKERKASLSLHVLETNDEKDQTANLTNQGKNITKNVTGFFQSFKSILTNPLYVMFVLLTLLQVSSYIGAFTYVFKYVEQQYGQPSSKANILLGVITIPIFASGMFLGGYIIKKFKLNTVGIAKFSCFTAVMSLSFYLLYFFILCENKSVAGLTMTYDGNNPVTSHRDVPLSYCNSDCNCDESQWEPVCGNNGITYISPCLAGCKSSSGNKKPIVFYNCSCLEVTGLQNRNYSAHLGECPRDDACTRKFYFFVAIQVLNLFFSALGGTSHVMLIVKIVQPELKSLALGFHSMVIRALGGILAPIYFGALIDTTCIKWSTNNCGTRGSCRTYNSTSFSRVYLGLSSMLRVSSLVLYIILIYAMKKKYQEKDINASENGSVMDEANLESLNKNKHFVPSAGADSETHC

IC50 (OATP1B1): 38 ± 3 µM | mRNA-T/U ratio, CYP3A4 (CYP3A4): 4.0 to 9.6 | IC50 (OAT3): 31 ± 8 µM | Km (OATP1B3 [2]): 14 µM | inhibition at 100 μmol/L (OATP1B3 [3]): > 50% | IC50 (UGT1A9): 3 ± 1 µM | inhibition at 100 μmol/L (UGT1A9; human, cDNA-expressed UGT1A9, probe 4-MU (10 μmol/L), 4-MUG formed): > 90%
Compound: O=C(/C=C/c1ccc(O)c2c1[C@H](C(=O)O[C@H](Cc1ccc(O)c(O)c1)C(=O)O)[C@@H](c1ccc(O)c(O)c1)O2)O[C@H](Cc1ccc(O)c(O)c1)C(=O)O [X10, salvianolic acid B]
pKa [1]: 2.8 | LogD(7.4) ([1]; pH 7.4): −2.8 | Related metabolism and transport data (substrate status) [4]: Highly selective OATP1B3 substrate; also recorded: COMT substrate
